Measurements published in patent publication EP1992346A1, “PHARMACEUTICAL COMPOSITIONS CONTAINING COMBINED PLATELET AGGREGATION INHIBITING SUBSTANCES FOR USE IN THE TREATMENT AND PREVENTION OF ISCHEMIC VASCULAR EVENTS” (WORLD-TRADE IMPORT-EXPORT, WTIE, A.G., priority 2005, dated 2007).

Legend:
[1] = tested on: U46619-induced platelet aggregation; settings: double blind, 10-day study, 20 healthy volunteers; plasma rich in platelets
Method: It was a double blind, 10-day duration study that was performed in 20 healthy volunteers with an age ranging from 26 to 40 years old. The platelet activation was measured by changes in light transmission of plasma rich in platelets stimulated by a synthetic analogue of TXA2, U46619.

[2] = cited from earlier work
[3] = tested on: platelet aggregation; settings: cited from earlier work
[4] = cited from earlier work; remark: listed apart in the source
[5] = radioactively marked Clopidogrel, within a five-day period

In the case of `COC(=O)[C@H](c1ccccc1Cl)N1CCc2sccc2C1` [Clopidogrel], the “U46619 stimulated platelet aggregation” value [1] is given as “significantly inhibited”, the “time to maximum plasmatic concentrations of primary metabolite” value ([2]; after a dose of 75 mg) is given as “one” and the plasmatic half-life ([2]; in vivo) is given as “about 8 hours”. The “inactive primary metabolite (carboxylic acid) as share of metabolites circulating in the plasma” value ([2]; oral) was “about 85%”, the absorption ([2]; oral, not significantly affected by food) was 50% and the eliminated through feces [2, 5] was 46%. The eliminated through urine [2, 5] was “About 50%”, the “plasmatic concentrations of the unaltered drug” value ([2]; two hours after an oral dose) was “no longer detectable” and the “time for platelet aggregation and bleeding-time to return to basal level” value ([3]; after the treatment discontinuation) was “five”. For the same compound, the platelet aggregation inhibited ([3]; in balanced conditions, 75 mg per day) was 40-60%, the activity in vitro ([3]; in vitro, requires hepatic activation) was “inactive in vitro” and the “time to maximum inhibition of platelet aggregation” value ([3]; iterative doses of 75 mg per day) was 3 to 7 days. For the same compound, the “inhibition of platelet aggregation” value ([3]; two hours after a single oral dose) was “already observed an inhibition of platelet aggregation” and the “reversibly bound to plasmatic proteins” value [4] was 98%.
